Consider 20 compounds from US20250268903A1, “RXFP1 AGONISTS” (BRISTOL-MYERS SQUIBB COMPANY, priority 2021, published 2025).

For this test, the target named is T1, human RXFP1 (Homo sapiens, UniProt Q9HBX9).
T1 construct: expressed in transfected cells
T1 sequence (Q9HBX9 1-757): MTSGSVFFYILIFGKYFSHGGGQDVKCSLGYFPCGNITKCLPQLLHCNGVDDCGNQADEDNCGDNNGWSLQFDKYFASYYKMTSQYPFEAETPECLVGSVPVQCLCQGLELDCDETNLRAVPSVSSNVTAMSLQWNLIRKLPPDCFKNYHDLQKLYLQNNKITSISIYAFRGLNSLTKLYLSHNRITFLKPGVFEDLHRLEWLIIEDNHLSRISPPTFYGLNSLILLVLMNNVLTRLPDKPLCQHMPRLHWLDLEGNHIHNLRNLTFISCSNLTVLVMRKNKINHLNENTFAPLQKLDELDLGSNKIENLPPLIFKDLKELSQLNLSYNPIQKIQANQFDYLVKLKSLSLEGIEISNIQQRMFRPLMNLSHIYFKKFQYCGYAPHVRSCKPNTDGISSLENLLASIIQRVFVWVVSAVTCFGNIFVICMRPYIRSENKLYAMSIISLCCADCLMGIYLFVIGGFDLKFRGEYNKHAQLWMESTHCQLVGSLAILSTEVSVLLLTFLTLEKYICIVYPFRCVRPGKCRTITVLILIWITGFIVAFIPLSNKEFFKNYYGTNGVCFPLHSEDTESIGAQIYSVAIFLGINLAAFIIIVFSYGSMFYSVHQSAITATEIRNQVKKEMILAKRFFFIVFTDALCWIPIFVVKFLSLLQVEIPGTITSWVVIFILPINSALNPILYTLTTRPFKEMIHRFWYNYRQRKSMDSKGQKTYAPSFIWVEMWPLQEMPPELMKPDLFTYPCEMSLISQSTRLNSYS
As to the kind of experiment: hRXFP1 HEK293 cAMP assay (HTRF). The test is classed as cell-based. To be noted: HEK293 cells stably expressing human RXFP1, 30 min at room temperature. The method in brief:
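hRXFP1-HEK293 stable line; HBSS + Ca/Mg, 20 mM HEPES, 0.05% BSA, 0.5 mM IBMX; cpd 0.010 nM–50 μM, 2% DMSO; 30 min RT; lysis, HTRF cAMP detection; 4-PL fit.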

By EC50 is commonly meant the concentration giving half of the maximal effect. For `COc1ccc([C@@H]2CCC(CC(C)(C)O)C2)cc1C(=O)N[C@H]1[C@@H](C(=O)Nc2ccc(F)c(C(F)(F)F)c2)[C@H]2CC[C@@H]1/C2=C\C1CCCC1` (stereo partly drawn) [Example 362, (1R,2S,3R,4R,Z)-7-(cyclopentyl-methylene)-N-(4-fluoro-3-(trifluoromethyl)phenyl)-3-(5-((1R)-3-(2-hydroxy-2-methylpropyl)cyclopentyl)-2-methoxybenzamido) bicyclo[2.2.1] heptane-2-carboxamide], a half-maximal effect (EC50) was put at 3 nM. The value for `COc1ccc([C@H]2C[C@H](O)C2)cc1C(=O)NC1C2CCC(/C2=C/C(F)(F)F)[C@@H]1C(=O)Nc1ccc(F)c(C(F)(F)F)c1` (stereo partly drawn) [Example 145, (2S,3R,7Z)-N-[4-fluoro-3-(trifluoromethyl)phe-nyl]-3-{2-methoxy-5-[(1r,3r)-3-hydroxycyclobutyl]benzamido}-7-(2,2,2-trifluoroethylidene)bi-cyclo[2.2.1]heptane-2-carboxamide] was 84 nM; that for `COc1ccc(CCC(F)(F)F)cc1C(=O)NC1C2CCC(/C2=C/C(F)(F)F)[C@@H]1C(=O)Nc1ccc(F)c(C(F)(F)F)c1` (some centres unmarked) [Example 187, (7Z)-N-[4-fluoro-3-(trifluoromethyl)phe-nyl]-3-[2-methoxy-5-(3,3,3-trifluoropropyl)benz-amido]-7-(2,2,2-trifluoroethylidene)bi-cyclo[2.2.1]heptane-2-carboxamide] was 385 nM. `COc1ccc(CCCNC(=O)[C@@H](C)O)cc1C(=O)N[C@H]1[C@@H](C(=O)Nc2ccc(F)c(C(F)(F)F)c2)[C@H]2CC[C@@H]1/C2=C\C(F)(F)F` [Example 111, (1R,2S,3R,4R,Z)—N-(4-fluoro-3-(trifluoromethyl)phenyl)-3-(5-(3-((R)-2-hydroxypropanamido)propyl)-2-methoxybenzamido)-7-(2,2,2-trifluoroethylidene) bicyclo[2.2.1]heptane-2-carboxamide] yielded an EC50 of 106 nM. Then `COc1ccc(CCC(=O)NC2CCC2)cc1C(=O)NC1C2CCC(/C2=C/C(F)(F)F)[C@@H]1C(=O)Nc1ccc(F)c(C(F)(F)F)c1` (stereo partly drawn) [Example 139, (2S,3R,7Z)-3-{5-[2-(cyclobutylcarbamoyl)ethyl]-2-methoxybenzamido}-N-[4-fluoro-3-(trifluoromethyl)phe-nyl]-7-(2,2,2-trifluoroethylidene)bi-cyclo[2.2.1]heptane-2-carboxamide], with 694 nM; and `COc1ccc(C2CCCC(N3CC(F)(F)C3)C2)cc1C(=O)N[C@H]1[C@@H](C(=O)Nc2ccc(F)c(C(F)(F)F)c2)[C@H]2CC[C@@H]1/C2=C\C(F)(F)F` (stereo partly drawn) [Example 355, (1R,2S,3R,4R,7Z)-3-[5-13-(3,3-difluoroazetidin-1-yl)cyclohexyl]-2-methoxybenzamido 3-N-[4-fluoro-3-(trifluoromethyl)phenyl]-7-(2,2,2-trifluoroethylidene) bicyclo[2.2.1] heptane-2-carboxamide], with 4960 nM; and `COc1ccc(CCN2CCOC2=O)cc1C(=O)NC1C2CCC(/C2=C/C2CCC2)[C@@H]1C(=O)Nc1ccc(F)c(C(F)(F)F)c1` (some centres unmarked) [Example 191, (7Z)-7-(cyclobutylmethyl-idene)-N-[4-fluoro-3-(trifluoromethyl)phe-nyl]-3-{2-methoxy-5-[2-(2-oxo-1,3-oxazolidin-3-yl)ethyl]benzamido} bicyclo[2.2.1]heptane-2-carboxamide], with 40 nM.

Compound `COC(=O)c1ccc(F)cc1Cc1ccc(OC)c(C(=O)NC2C3CCC(/C3=C/C(F)(F)F)[C@@H]2C(=O)Nc2ccc(F)c(C(F)(F)F)c2)c1` (stereo partly drawn) [Example 156, methyl 4-fluoro-2-[(3-{[(2R,3S,7Z)-3-{[4-fluoro-3-(trifluoromethyl)phe-nyl]carbamoyl}-7-(2,2,2-trifluoroethylidene)bi-cyclo[2.2.1]heptan-2-yl]carbamoyl}-4-methoxyphenyl)meth-yl]benzoate] returned an EC50 of 464 nM.

In the case of `COc1c(F)cc(C(=O)NCC2(S(C)(=O)=O)CC2)cc1C(=O)N[C@H]1[C@@H](C(=O)N[C@H](C)C2(C)CC2)[C@H]2CC[C@@H]1/C2=C\c1cnc(C(F)(F)F)s1` [Example 373, 5-fluoro-N1-[(1-methanesulfonyl-cyclopropyl)methyl]-4-methoxy-N3-[(1R,2R,3S,4R,7Z)-3-{[(1R)-1-(1-methylcyclopropyl)ethyl]carbamoyl}-7-{[2-(trifluoromethyl)-1,3-thiazol-5-yl]methylidene}bicyclo[2.2.1]heptan-2-yl]benzene-1,3-dicarboxamide], the midpoint of the response, the EC50, lay at 3.6 nM. For the compound `COc1ccc(CC(C)CO)cc1C(=O)N[C@@H]1C2CCC(/C2=C/C(F)(F)F)[C@@H]1C(=O)Nc1ccc(F)c(C(F)(F)F)c1` (single isomer, unassigned) [Example 67], it took 193 nM to reach a half-maximal effect (EC50). The value for `COc1ccc(C(O)C(F)(F)F)cc1C(=O)NC1C2CCC(/C2=C/C(F)(F)F)[C@@H]1C(=O)Nc1ccc(F)c(C(F)(F)F)c1` (single isomer, unassigned) [Example 5] was 1010 nM; that for `COc1ccc(COC2(C(=O)O)CC2)cc1C(=O)N[C@@H]1C2CCC(/C2=C/C2CC2)[C@@H]1C(=O)Nc1ccc(F)c(C(F)(F)F)c1` (stereo partly drawn) [Example 18, 1-[(3-{[(2R,3S,7Z)-7-(cyclopropylmethyli-dene)-3-{[4-fluoro-3-(trifluoromethyl)phe-nyl]carbamoyl}bicy-clo[2.2.1]heptan-2-yl]carbamoyl}-4-methoxyphenyl)meth-oxy]cyclopropane-1-carboxylic acid] was 124 nM. Consider `COc1ccc(COC[C@@H]2C[C@@H]2C(=O)OCc2ccccc2)cc1C(=O)N[C@H]1[C@@H](C(=O)Nc2ccc(F)c(C(F)(F)F)c2)[C@H]2CC[C@@H]1/C2=C\C1CC1` [Example 287, benzyl (1S, 2R)-2-{[(3-{[(1R,3S,4R,7Z)-7-(cyclopropylmethylidene)-3-{[4-fluoro-3-(trifluoromethyl)phenyl]carbamoyl}bicyclo[2.2.1]heptan-2-yl]carbamoyl}-4-methoxyphenyl)methoxy]methyl} cyclopropane-1-carboxylate], for which the response was half-maximal at 1290 nM (EC50).

Turning to `COc1ccc(S(=O)(=O)N2CCN(C(=O)OC(C)(C)C)CC2CCO)cc1C(=O)N[C@H]1[C@@H](C(=O)Nc2ccc(F)c(C(F)(F)F)c2)[C@H]2CC[C@@H]1/C2=C\C(F)(F)F` (stereo partly drawn) [Example 215, tert-butyl 4-(3-{[(1R,2R,3S,4R,7Z)-3-{[4-fluoro-3-(trifluoromethyl)phenyl]carbamoyl}-7-(2.2,2-trifluoroethylidene)bicyclo[2.2.1]heptan-2-yl]carbamoyl}-4-methoxy-benzenesulfonyl)-3-(2-hydroxyethyl) piperazine-1-carboxylate], the concentration for a half-maximal effect (EC50) is 761 nM. The value for `COc1ccc(S(=O)(=O)N(CCO)CCO)cc1C(=O)N[C@H]1[C@@H](C(=O)Nc2ccc(F)c(C(F)(F)F)c2)[C@H]2CC[C@@H]1/C2=C\C(F)(F)F` [Example 217, (1R,2S,3R,4R,7Z)-3-{5-[bis(2-hydroxyethyl)sulfamoyl]-2-methoxybenzamido}-N-[4-fluoro-3-(trifluoromethyl)phenyl]-7-(2,2,2-trifluoroethylidene) bicyclo[2.2.1] heptane-2-carboxamide] was 221 nM; that for `COc1ccc(C23CCC(C(C)(C)O)(CC2)CC3)cc1C(=O)N[C@H]1[C@@H](C(=O)Nc2ccc(F)c(C(F)(F)F)c2)[C@H]2CC[C@@H]1/C2=C\C1CC1` [Example 275, (1R,2S,3R,4R,7Z)-7-(cyclopropylmethyl-idene)-N-[4-fluoro-3-(trifluoromethyl)phenyl]-3-{5-[4-(2-hydroxypropan-2-yl)bicyclo[2.2.2]octan-1-yl]-2-methoxybenzamido} bicyclo[2.2.1]heptane-2-carboxamide] was 41.8 nM. The value for `COc1ccc(Nc2ccccc2)cc1C(=O)N[C@H]1[C@@H](C(=O)Nc2ccc(F)c(C(F)(F)F)c2)[C@H]2CC[C@@H]1/C2=C\C1CC1` [Example 2, (1R,2S,3R,4R,Z)-7-(cyclopropylmethylene)-N-(4-fluoro-3-(trifluoromethyl)phenyl)-3-(2-methoxy-5-(phenylamino)benzamido) bicyclo[2.2.1]heptane-2-carboxamide] was 280 nM; that for `COc1ccc(C2CC3CC(O)CC32)cc1C(=O)N[C@H]1[C@@H](C(=O)Nc2ccc(F)c(C(F)(F)F)c2)[C@H]2CC[C@@H]1/C2=C\C1CC1` (single isomer, unassigned) [Example 342] was 27.8 nM. Compound `COc1ccc(C2CCCC(NC(=O)C3CCOCC3)C2)cc1C(=O)N[C@@H]1C2CCC(/C2=C/C(F)(F)F)[C@@H]1C(=O)Nc1ccc(F)c(C(F)(F)F)c1` (single isomer, unassigned) [Example 51] returned an EC50 of 2350 nM. The value for “(1R,4R,7Z)-N-[4- fluoro-3- (trifluoromethyl) phenyl]-3-[5-(3- hydroxypropyl)-2- methoxybenzamido]- 7-[(oxolan-3- yl)methylidene] bicyclo[2.2.1] heptane- 2-carboxamide [Example 264]” was 459 nM.
